This is an account of results in ChEMBL document CHEMBL4627328, “Synthesis and in vitro evaluation of antimycobacterial and cytotoxic activity of new α,β-unsaturated amide, oxazoline and oxazole derivatives from l-serine” (Bioorg Med Chem Lett, 2020).

The test system of series [1] is Mycobacterium tuberculosis. The experiment in a line: Antimycobacterial activity against Mycobacterium tuberculosis H37Rv ATCC 27294 incubated for 5 days by alamar blue based colorimetric assay. The class given is functional. Conditions: H37Rv ATCC 27294, 120 h. For orientation: Resazurin is reduced to fluorescent resorufin, in cell work by metabolically active cells.

A short description of series [2]: Cytotoxicity against monkey Vero cells assessed as cell viability at 50 ug/ml by WST-1 assay relative to control. In kind it is cell-based. The conditions noted are these: chlorocebus sabaeus, read-out: Activity. (In general: Tetrazolium assays rely on reduction of a dye to a coloured formazan, in cell work by metabolically active cells.)
Series [3] can be described thus: Cytotoxicity against monkey Vero cells assessed as cell viability at 100 ug/ml by WST-1 assay relative to control. The class given is cell-based. The conditions noted are these: chlorocebus sabaeus, read-out: Activity.

In brackets after ≈: the same amount, converted by molar mass. Bounds are passed on as bounds.

Usually MIC stands for the least concentration at which growth counts as inhibited. Consider `COC(=O)[C@H](COC(=O)/C=C/c1ccc(F)cc1)NC(=O)/C=C/c1ccc(F)cc1`, for which the MIC in series [1] is 120 µM (≈ 50 µg/mL). In addition, the viability at 50 ug/ml in series [2] was determined as 21.1%. Also, the viability at 100 ug/ml in series [3] worked out at 8.65%.

For the molecule `CC[C@@H](CO)NCCN[C@@H](CC)CO` [ETHAMBUTOL], in series [1], the MIC is 15.2 µM (≈ 3.11 µg/mL).

In series [1], `COC(=O)[C@H](CO)NC(=O)/C=C/c1ccc(F)cc1` had a minimum inhibitory concentration (MIC) of over 374 µM.

With `COC(=O)[C@H](CO)NC(=O)/C=C/c1ccc(C)cc1`, the minimum inhibitory concentration (MIC) in series [1] was over 380 µM. The viability at 50 ug/ml in series [2] was found to be 100%. In series [3], the viability at 100 ug/ml was found to be 101%.

For the molecule `C[C@H]1COc2c(N3CCN(C)CC3)c(F)cc3c(=O)c(C(=O)O)cn1c23` [LEVOFLOXACIN], the MIC in series [1] was determined as 0.54 µM (≈ 0.195 µg/mL).

In series [1], `O=C(/C=C/c1ccc(F)cc1)O/C(=N/C1CCCCC1)NC1CCCCC1` had an MIC of over 268 µM. Moreover, in series [2], the viability at 50 ug/ml is 82.5%. The viability at 100 ug/ml in series [3] was 85.5%.

Molecule `COC(=O)[C@H](COC(=O)/C=C/c1ccc(C)cc1)NC(=O)/C=C/c1ccc(C)cc1` had an MIC in series [1] of 123 µM (≈ 50 µg/mL). Moreover, in series [2], the viability at 50 ug/ml is 28.8%. Also, the viability at 100 ug/ml in series [3] was found to be 18.7%.

Regarding `COC(=O)[C@H](CO)NC(=O)/C=C/c1ccccc1`, the MIC in series [1] is over 401 µM. Moreover, in series [2], the viability at 50 ug/ml came out at 97.1%. The viability at 100 ug/ml in series [3] came out at 99.4%.

Turning to `Cc1ccc(/C=C/C(=O)O/C(=N/C2CCCCC2)NC2CCCCC2)cc1`, in series [1], the MIC was over 271 µM. Further, in series [2], the viability at 50 ug/ml worked out at 79.3%. In addition, in series [3], the viability at 100 ug/ml was determined as 95.5%.

`COC(=O)c1coc(/C=C/c2ccc(C)cc2)n1`: in series [1], the MIC came out at 3.21 µM (≈ 0.781 µg/mL). Besides, in series [2], the viability at 50 ug/ml worked out at 102%. The viability at 100 ug/ml in series [3] stood at 100%.

Regarding `COC(=O)[C@H](COC(=O)/C=C/c1ccccc1)NC(=O)/C=C/c1ccccc1`, the MIC in series [1] is over 264 µM. In addition, the viability at 50 ug/ml in series [2] stood at 16.8%. The viability at 100 ug/ml in series [3] turned out to be 10.7%.

In series [1], `COC(=O)[C@@H]1COC(/C=C/c2ccc(C)cc2)=N1` yielded an MIC of 25.4 µM (≈ 6.23 µg/mL). Moreover, the viability at 50 ug/ml in series [2] is 85.1%. In series [3], the viability at 100 ug/ml turned out to be 17%.

As to `COC(=O)c1coc(/C=C/c2ccccc2)n1`, the MIC in series [1] is 54.5 µM (≈ 12.5 µg/mL). Further, the viability at 50 ug/ml in series [2] is 99.6%. Also, the viability at 100 ug/ml in series [3] was 102%.

On to `COC(=O)[C@H](COC(=O)/C=C/c1ccc(OC)cc1)NC(=O)/C=C/c1ccc(OC)cc1`, for which the MIC in series [1] was 114 µM (≈ 50 µg/mL). In series [2], the viability at 50 ug/ml is 39.1%. Further, the viability at 100 ug/ml in series [3] came out at 11.4%.

In series [1], `O=C(/C=C/c1ccccc1)O/C(=N/C1CCCCC1)NC1CCCCC1` came in with a minimum inhibitory concentration (MIC) of over 282 µM. Further, the viability at 50 ug/ml in series [2] was determined as 83.9%. Besides, in series [3], the viability at 100 ug/ml came out at 83.8%.

In series [1], `COC(=O)c1coc(/C=C/c2ccc(OC)cc2)n1` had an MIC of 24.1 µM (≈ 6.25 µg/mL). Also, in series [2], the viability at 50 ug/ml came out at 99.6%. In addition, the viability at 100 ug/ml in series [3] worked out at 96.8%.

The molecule `COC(=O)[C@@H]1COC(/C=C/c2ccc(OC)cc2)=N1` returned an MIC in series [1] of 23.9 µM (≈ 6.24 µg/mL). In series [2], the viability at 50 ug/ml is 94.8%. Also, the viability at 100 ug/ml in series [3] was 20.9%.

Turning to `COC(=O)[C@@H]1COC(/C=C/c2ccc(F)cc2)=N1`, 50.1 µM (≈ 12.5 µg/mL) was the least that counted as inhibitory in series [1] (MIC). In addition, in series [2], the viability at 50 ug/ml turned out to be 91.6%. Further, the viability at 100 ug/ml in series [3] turned out to be 18.6%.

The molecule `COC(=O)[C@H](CO)NC(=O)/C=C/c1ccc(OC)cc1` had an MIC in series [1] of over 358 µM. For the same molecule, the viability at 50 ug/ml in series [2] was found to be 100%. For the same molecule, the viability at 100 ug/ml in series [3] is 103%.

Turning to `COC(=O)c1coc(/C=C/c2ccc(F)cc2)n1`, the MIC in series [1] is 12.6 µM (≈ 3.12 µg/mL). In addition, the viability at 50 ug/ml in series [2] was determined as 102%. In series [3], the viability at 100 ug/ml is 99%.

Take `CO[C@H]1/C=C/O[C@@]2(C)Oc3c(C)c(O)c4c(O)c(c(/C=N/N5CCN(C)CC5)c(O)c4c3C2=O)NC(=O)/C(C)=C\C=C\[C@H](C)[C@H](O)[C@@H](C)[C@@H](O)[C@@H](C)[C@H](OC(C)=O)[C@@H]1C` [RIFAMPIN]: inhibition of growth in series [1] (MIC) required 0.06 µM (≈ 0.0494 µg/mL).

`COC(=O)[C@@H]1COC(/C=C/c2ccccc2)=N1` had an MIC in series [1] of 54.1 µM (≈ 12.5 µg/mL). Further, the viability at 50 ug/ml in series [2] stood at 68.6%. Also, in series [3], the viability at 100 ug/ml worked out at 12.4%.
